The values below are quoted from earlier work in patent publication US5559147A, “Aromatic fluorine-containing organotin compounds and anti-tumour composition” (Pharmachemie B.V., priority 1994, dated 1996).

One series concerns MCF-7, a mammary tumour. Conditions: earlier work.
Series [1] has as its system two human tumour cell lines, MCF-7 and WiDR. Particulars: in words.
In the next series the test system is WiDR, a colon carcinoma. Particulars: earlier work.

On to `CCC[CH2][Sn]([CH2]CCC)([O]C(=O)c1cccc(F)c1F)[O]C(=O)c1cccc(F)c1F` [(2,3-F2 C6 H3 CO2)2 SnBu2], for which the ID50 in the series with MCF-7, a mammary tumour is 0.023 µg/mL; in the series with WiDR, a colon carcinoma, 0.283 µg/mL. Also, in series [1], the “ID50 compared with reference drug” value was “comparable to mitomycin C”.
Regarding `CCC[CH2][Sn]([CH2]CCC)([O]C(=O)c1ccc(F)cc1)[O]C(=O)c1ccc(F)cc1` [(4-F-C6 H4 CO2)2 SnBu2], the ID50 with MCF-7, a mammary tumour is 0.09 µg/mL; with WiDR, a colon carcinoma, 0.309 µg/mL. In addition, the “ID50 compared with reference drug” value in series [1] is on record as “comparable to those observed for etoposide”.
In the case of `CCC[CH2][Sn+2][CH2]CCC.O=C([O-])c1c(F)c(F)c(F)c(F)c1C(=O)[O-]` [Di-n-butyltintetrafluorophthalate], the ID50 in the series on MCF-7, a mammary tumour was 0.051 µg/mL; with WiDR, a colon carcinoma it was 0.068 µg/mL.
Consider {(2,3,4,5-F4 C6 HCO2 SnBu2)2 O}2, for which the ID50 was 0.035 µg/mL in the series on MCF-7, a mammary tumour and 0.25 µg/mL in the series with WiDR, a colon carcinoma.
On to {(2,3,6-F3 C6 H3 CO2 SnBu2)2 O}2, for which the ID50 is 0.013 µg/mL with MCF-7, a mammary tumour and 0.2 µg/mL with WiDR, a colon carcinoma.
Consider {(2,3-F2 C6 H3 CO2 SnBu2)2 O}2, for which the ID50 with MCF-7, a mammary tumour was 0.009 µg/mL; in the series with WiDR, a colon carcinoma, 0.12 µg/mL. The “ID50 compared with reference drug” value in series [1] was “comparable to mitomycin C”.
For {(2-F-C6 H4 CH=CHC2 SnBu2)2 O}2, the ID50 was 0.028 µg/mL in the series on MCF-7, a mammary tumour and 0.368 µg/mL in the series with WiDR, a colon carcinoma.
For {(4-F-C6 H4 CH2 CO2 SnBu2)2 O}2, the ID50 was 0.038 µg/mL with MCF-7, a mammary tumour and 0.268 µg/mL in the series on WiDR, a colon carcinoma.
In the case of {(4-F-C6 H4 CO2 SnBu2)2 O}2, the ID50 in the series with MCF-7, a mammary tumour was 0.081 µg/mL; in the series with WiDR, a colon carcinoma, 0.36 µg/mL. Also, in series [1], the “ID50 compared with reference drug” value was “comparable to those observed for etoposide”.
